Test results from patent publication US7074807B2, “Compositions and methods for inducing cell death” (Georgetown University, priority 1998, dated 2006).

Experiments:
[1] = test system: MDA-MB231 human breast tumor xenografts; experiment: Tumor growth study, MDA-MB231 breast tumor xenografts in athymic mice; format: in vivo; settings: 200 mg/kg intratumoral once daily for 8 days, vs 10% ethanol vehicle group
Experimental: FIGS. (13A), (13B1–13B2) illustrates the effects of tempo on the growth of human breast tumor xenografts in athymic mice. 13A. Tempo (200 mg/kg) was administered intratumorally once daily for a total of 8 days (*). Control group was treated simultaneously with an equal volume of ethanol (10%). Experiment was terminated when the control tumor volumes exceeded the recommended tumor burden. Each point represents mean q S.E. (n=4). […] (13B1–13B2). Representative tumor-bearing mice. Mice were treated with 10% ethanol (13B1) or tempo (13B2) as explained above.
MDA-MB231 cells (1×10^6) were inoculated subcutaneously in the right flank of 4–6 week-old female athymic mice. Tumor growth was monitored biweekly. Mice bearing tumor volumes in the range of 80–100 mm^3 were randomly selected for treatment. Tempo treatment was initiated (50 mg/kg–200 mg/kg, intratumoral, once daily, for a total of 8 days), and tumor volumes were measured for a total 25 days from the start of treatment.

[2] = test system: bovine aortic endothelial cells; experiment: Apoptotic cell death by bisbenzamide trihydrochloride/Hoechst-33258 staining; format: cell-based; settings: 5 mM

In the case of `CC1(C)CCCC(C)(C)N1[O]` [tempo, 2,2,6,6-tetramethylpiperidine-N-oxyl], the intratumoral tolerance (Tolerated dose in mice) is reported as “over 200 mg/kg”, the tumor growth rate [1] is reported as “significant decline in tumor growth rate” and the apoptotic cell death ([2]; 4 h) is reported as 3.97±0.33%. For the same compound, the apoptotic cell death ([2]; 8 h) was 38.85±1.69%.
